Reference: PubChem BioAssay AID248 (DTP/NCI, 2004)
“And” between values parts separate entries of the source, which are not always exact repeats. Equal values may be shown once. Toxic doses and inconclusive results are not listed. Rule as the data show it: active = T/C of 150% or more; inactive = T/C below 125%.

System: L1210 leukemia ip in BDF1 mice, survival T/C
Experiment: NCI In Vivo Anticancer Drug Screen. Data for tumor model L1210 Leukemia (intraperitoneal) in B6D2F1 (BDF1) mice
Conditions: endpoint: mean survival time, higher = longer survival
In short: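 Tumor cells were implanted, animals were treated, and survival was followed. The result divides the treated measurement by the vehicle-control measurement.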

[1] = dose: 100.0 mg/kg/injection, schedule: Q04DX003 (ip), vehicle: saline with Tween-80
[2] = dose: 200.0 mg/kg/injection, schedule: Q04DX003 (ip), vehicle: saline with Tween-80
[3] = dose: 100.0 mg/kg/injection, schedule: Q01DX009 (ip), vehicle: Klucel (hydroxypropylcellulose) (HPC)
[4] = dose: 100.0 mg/kg/injection, schedule: Q01DX001 (ip), vehicle: saline
[5] = dose: 200.0 mg/kg/injection, schedule: Q01DX001 (ip), vehicle: saline
[6] = dose: 400.0 mg/kg/injection, schedule: Q01DX001 (ip), vehicle: saline
[7] = dose: 400.0 mg/kg/injection, schedule: Q04DX003 (ip), vehicle: saline with Tween-80
[8] = dose: 100.0 mg/kg/injection, schedule: Q01DX001 (ip), vehicle: carboxymethylcellulose (CMC)
[9] = dose: 200.0 mg/kg/injection, schedule: Q01DX001 (ip), vehicle: carboxymethylcellulose (CMC)
[10] = dose: 400.0 mg/kg/injection, schedule: Q01DX001 (ip), vehicle: carboxymethylcellulose (CMC)
[11] = dose: 100.0 mg/kg/injection, schedule: Q01DX001 (ip), vehicle: Klucel (hydroxypropylcellulose) (HPC)
[12] = dose: 100.0 mg/kg/injection, schedule: Q04DX003 (ip), vehicle: Klucel (hydroxypropylcellulose) (HPC)
[13] = dose: 200.0 mg/kg/injection, schedule: Q04DX003 (ip), vehicle: Klucel (hydroxypropylcellulose) (HPC)
[14] = dose: 100.0 mg/kg/injection, schedule: Q01DX009 (ip), vehicle: saline with Tween-80
[15] = dose: 200.0 mg/kg/injection, schedule: Q01DX009 (ip), vehicle: saline with Tween-80
[16] = dose: 200.0 mg/kg/injection, schedule: Q01DX009 (ip), vehicle: Klucel (hydroxypropylcellulose) (HPC)

Measured: T/C

CC1(C)OCC(N)(CO)CO1
inactive: dose: 100.0 mg/kg/injection, schedule: Q01DX005 (ip), vehicle: water 105 % of control | dose: 100.0 mg/kg/injection, schedule: Q04DX003 (ip), vehicle: water 109 % of control | dose: 200.0 mg/kg/injection, schedule: Q01DX005 (ip), vehicle: water 107 % of control | dose: 200.0 mg/kg/injection, schedule: Q04DX003 (ip), vehicle: water 108 % of control | dose: 400.0 mg/kg/injection, schedule: Q01DX005 (ip), vehicle: water 97 % of control | dose: 400.0 mg/kg/injection, schedule: Q04DX003 (ip), vehicle: water 98 % of control

O=[As](O)(c1ccccc1)C1CCCCC1O (stereo not given)
inactive: dose: 6.25 mg/kg/injection, schedule: Q01DX001 (ip), vehicle: saline with Tween-80 97 % of control | dose: 12.5 mg/kg/injection, schedule: Q01DX001 (ip), vehicle: saline with Tween-80 98 % of control | dose: 25.0 mg/kg/injection, schedule: Q01DX001 (ip), vehicle: saline with Tween-80 111 % of control

O=C(O)c1cc(O)ccc1O
inactive: [1] 100 % of control | [2] 97 % of control

C#CC1(NC(=S)NC(=O)c2ccccc2)CCCCC1
inactive: dose: 25.0 mg/kg/injection, schedule: Q01DX009 (ip), vehicle: Klucel (hydroxypropylcellulose) (HPC) 93 % of control | dose: 50.0 mg/kg/injection, schedule: Q01DX009 (ip), vehicle: Klucel (hydroxypropylcellulose) (HPC) 94 % of control | [3] 94 % of control and 88 % of control

C1CCC(C2CCC(C3CCCCC3)CC2)CC1 (stereo not given)
inactive: [4] 90 % of control | [5] 90 % of control

CCCCC(=O)N/N=C/c1cc(I)cc(I)c1O
inactive: [4] 87 % of control | [5] 89 % of control | [6] 87 % of control

COc1cc(I)cc(OC)c1OC
inactive: [1] 97 % of control | [2] 94 % of control | [7] 100 % of control

CCOP(=O)(Nc1cccc(Cl)c1)OCC
inactive: dose: 50.0 mg/kg/injection, schedule: Q01DX001 (ip), vehicle: carboxymethylcellulose (CMC) 94 % of control | [8] 94 % of control | [9] 105 % of control | [10] 103 % of control

CCCCC(CC)CC1C(=O)NC(=S)NC1=O (stereo not given)
inactive: dose: 75.0 mg/kg/injection, schedule: Q01DX001 (ip), vehicle: saline 97 % of control | dose: 150.0 mg/kg/injection, schedule: Q01DX001 (ip), vehicle: saline 98 % of control

CC(=O)OC1CC2C(C)(C)C(=O)C=CC2(C)C2CCC3(C)C(c4ccoc4)OC(=O)C4OC43C12C (stereo not given)
inactive: dose: 100.0 mg/kg/injection, schedule: Q01DX001 (sc), vehicle: steriod suspending solution 104 % of control | dose: 200.0 mg/kg/injection, schedule: Q01DX001 (sc), vehicle: steriod suspending solution 104 % of control | dose: 400.0 mg/kg/injection, schedule: Q01DX001 (sc), vehicle: steriod suspending solution 92 % of control

COB(OC)C1CCCC1
inactive: [11] 92 % of control | dose: 200.0 mg/kg/injection, schedule: Q01DX001 (ip), vehicle: Klucel (hydroxypropylcellulose) (HPC) 95 % of control

CN1C(=O)N(C)C(=O)C(Cc2ccccc2)(Cc2ccccc2)C1=O
inactive: dose: 10.0 mg/kg/injection, schedule: Q01DX001 (ip), vehicle: saline 109 % of control | dose: 20.0 mg/kg/injection, schedule: Q01DX001 (ip), vehicle: saline 105 % of control

NC(=O)C(Br)c1ccccc1 (stereo not given)
inactive: [12] 101 % of control | [13] 98 % of control

Cc1cccc(C(C#N)(CCC#N)N2CCOCC2)n1 (stereo not given)
inactive: dose: 50.0 mg/kg/injection, schedule: Q01DX009 (ip), vehicle: saline with Tween-80 91 % of control | [14] 98 % of control | [15] 94 % of control

CCCCCCCCCCCCCCC1CC(=O)OC1=O (stereo not given)
inactive: [3] 92 % of control | [12] 86 % of control | [16] 86 % of control | [13] 88 % of control | dose: 400.0 mg/kg/injection, schedule: Q04DX003 (ip), vehicle: Klucel (hydroxypropylcellulose) (HPC) 93 % of control

O=C(Nc1ccc(S(=O)(=O)NC2CCCCC2)cc1)OC1CCCC1
inactive: [8] 95 % of control | [9] 94 % of control | [10] 97 % of control

C=CCCc1c(N)nc(N)[nH]c1=O
inactive: dose: 25.0 mg/kg/injection, schedule: Q01DX001 (ip), vehicle: Klucel (hydroxypropylcellulose) (HPC) 100 % of control | dose: 50.0 mg/kg/injection, schedule: Q01DX001 (ip), vehicle: Klucel (hydroxypropylcellulose) (HPC) 100 % of control | [11] 96 % of control

O=C1NC(=O)C2(N1)c1ccccc1-c1ccccc12
inactive: [3] 95 % of control | [16] 90 % of control | dose: 400.0 mg/kg/injection, schedule: Q01DX009 (ip), vehicle: Klucel (hydroxypropylcellulose) (HPC) 95 % of control

FC(F)(F)c1cc(Br)c2ccc3ncccc3c2n1
inactive: dose: 100.0 mg/kg/injection, schedule: Q04DX002 (ip), vehicle: saline with Tween-80 111 % of control | dose: 200.0 mg/kg/injection, schedule: Q04DX002 (ip), vehicle: saline with Tween-80 107 % of control | dose: 400.0 mg/kg/injection, schedule: Q04DX002 (ip), vehicle: saline with Tween-80 96 % of control

CC(C(=O)c1ccccc1)C(c1ccccc1)N1CCOCC1 (stereo not given)
inactive: [1] 106 % of control | [2] 101 % of control | [7] 100 % of control

COc1cc(/C=N/NC(=O)c2ccncc2)cc(OC)c1OC
inactive: [14] 112 % of control | [1] 111 % of control | [15] 101 % of control | [2] 118 % of control | dose: 400.0 mg/kg/injection, schedule: Q01DX009 (ip), vehicle: saline with Tween-80 98 % of control | [7] 100 % of control

C/C(=N\NC(=S)Nc1cc(I)ccc1C)c1cc([N+](=O)[O-])c(O)cc1O
inactive: dose: 12.5 mg/kg/injection, schedule: Q04DX002 (ip), vehicle: Klucel (hydroxypropylcellulose) (HPC) 102 % of control | dose: 25.0 mg/kg/injection, schedule: Q04DX002 (ip), vehicle: Klucel (hydroxypropylcellulose) (HPC) 97 % of control | dose: 50.0 mg/kg/injection, schedule: Q04DX002 (ip), vehicle: Klucel (hydroxypropylcellulose) (HPC) 105 % of control

CC(=O)OC1C(C(N)=O)CC(C(=O)O)C1OC(C)=O (stereo not given)
inactive: [4] 112 % of control | [5] 114 % of control | [6] 106 % of control

O=C(O)C1CC12c1ccccc1-c1ccccc12 (stereo not given)
inactive: [4] 92 % of control | [5] 95 % of control

N#Cc1cn[nH]c1N
inactive: dose: 100.0 mg/kg/injection, schedule: Q01DX001 (ip), vehicle: saline with Tween-80 98 % of control | dose: 200.0 mg/kg/injection, schedule: Q01DX001 (ip), vehicle: saline with Tween-80 95 % of control | dose: 400.0 mg/kg/injection, schedule: Q01DX001 (ip), vehicle: saline with Tween-80 103 % of control

CC(C)(N)COC(=O)c1ccccc1C(=O)O
inactive: [4] 91 % of control | [5] 96 % of control | [6] 94 % of control
